# Measured values taken from article PMC11009956, “Initial Primer Synthesis of a DNA Primase Monitored by Real-Time NMR Spectroscopy” (Journal of the American Chemical Society, 2024).
# T1: pRN1 primase (functional primase) (Sulfolobus islandicus (plasmid pRN1), UniProt Q54324 40-370)
# T1 sequence: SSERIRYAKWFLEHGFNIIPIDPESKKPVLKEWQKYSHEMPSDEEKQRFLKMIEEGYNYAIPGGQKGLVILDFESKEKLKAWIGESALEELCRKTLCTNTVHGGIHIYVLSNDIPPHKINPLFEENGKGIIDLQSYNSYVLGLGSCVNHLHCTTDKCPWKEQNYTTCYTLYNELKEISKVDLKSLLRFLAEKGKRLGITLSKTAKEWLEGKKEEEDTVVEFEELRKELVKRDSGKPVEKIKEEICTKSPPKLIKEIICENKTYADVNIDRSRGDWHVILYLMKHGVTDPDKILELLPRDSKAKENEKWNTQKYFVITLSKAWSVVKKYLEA
# T2: pRN1 primase helix-bundle domain (HBD) (Sulfolobus islandicus (plasmid pRN1), UniProt Q54324 256-370)
# T2 sequence: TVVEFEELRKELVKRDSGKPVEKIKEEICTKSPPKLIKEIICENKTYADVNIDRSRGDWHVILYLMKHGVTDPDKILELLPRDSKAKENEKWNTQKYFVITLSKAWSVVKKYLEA
# T3: pRN1 primase H145A (Sulfolobus islandicus (plasmid pRN1), UniProt Q54324 40-370, H145A)
# T3 sequence: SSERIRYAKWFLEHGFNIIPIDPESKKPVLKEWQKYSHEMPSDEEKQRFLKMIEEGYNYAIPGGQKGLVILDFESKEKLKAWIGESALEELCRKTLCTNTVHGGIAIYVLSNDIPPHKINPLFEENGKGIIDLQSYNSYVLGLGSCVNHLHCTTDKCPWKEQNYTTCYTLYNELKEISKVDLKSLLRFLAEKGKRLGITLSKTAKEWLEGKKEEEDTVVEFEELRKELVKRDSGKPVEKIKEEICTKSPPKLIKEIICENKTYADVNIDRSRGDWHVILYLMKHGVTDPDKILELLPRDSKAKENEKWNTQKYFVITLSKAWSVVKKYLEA
# What was measured:
# [1] = target: T4, helix-bundle domain (HBD) of pRN1 primase (Saccharolobus islandicus, UniProt Q54324); test: 1H-15N HSQC NMR titration; type: binding; conditions: 10 mM MgCl2, pH 7.0, 298 K
# T4 construct: helix-bundle domain, residues 256-370, expressed in E. coli BL21(DE3) Codon+, Ni2+ IMAC purified (tag not described)
# functional pRN1 primase [2] = target: T5, functional pRN1 primase (Saccharolobus islandicus, UniProt Q54324); test: time-resolved solution NMR of dinucleotide formation; type: biochemical; conditions: primase-DNA complex
# T5 construct: primase part (catalytic domain plus HBD), residues 40-370, monomeric, expressed in E. coli BL21(DE3) Codon+, Ni2+ IMAC purified (tag not described)
# [3] = target: T6, catalytic domain of pRN1 primase (Saccharolobus islandicus, UniProt Q54324); test: 1H-15N HSQC NMR titration; type: binding; conditions: free catalytic domain, no DNA; 10 mM MgCl2, pH 7.0, 298 K; near active site (V148, S150)
# T6 construct: catalytic domain, residues 40-248, expressed in E. coli BL21(DE3) Codon+, Ni2+ IMAC purified (tag not described)
# functional pRN1 primase [4] = target: T7, functional pRN1 primase (Saccharolobus islandicus, UniProt Q54324, H145A); test: […] CP-MAS solid-state NMR; type: binding; conditions: catalytically inactive mutant; primase-DNA complex with ATP^N; 10 mM MgCl2, pH 7.0
# T7 construct: primase part (catalytic domain plus HBD), residues 40-370, monomeric, expressed in E. coli BL21(DE3) Codon+, Ni2+ IMAC purified (tag not described)
# [5] = target: T4, helix-bundle domain (HBD) of pRN1 primase; test: 1H-15N HSQC NMR; type: binding; conditions: HBD-DNA complex
# functional pRN1 primase [6] = target: T5, functional pRN1 primase; test: […] CP-MAS solid-state NMR; type: biochemical; conditions: primase-DNA complex with ATP^N; 10 mM MgCl2, pH 7.0, 281 K; bound by HBD, slow substrate
# functional pRN1 primase [7] = target: T5, functional pRN1 primase; test: […] CP-MAS solid-state NMR; 1H-detected hNH NMR; type: biochemical; conditions: formed in situ from ATP^N and dGTP^C on primase-DNA complex; triphosphate remains bound to HBD
# functional pRN1 primase [8] = target: T5, functional pRN1 primase; test: […] CP-MAS solid-state NMR; 1H-15N HSQC NMR; type: biochemical; conditions: primase-DNA complex with dGTP^C; 10 mM MgCl2, pH 7.0; slow substrate
# [9] = target: T1, pRN1 primase (functional primase); test: NMR (1H-15N HSQC; 31P CP-MAS); ATPC + dGTPC; HBD titrations: 25 mM sodium phosphate pH 7.0, 75 mM NaCl, 10 mM MgCl2, 298 K, 0.1 mM HBD, HBD:DNA 1:1.1; solid-state NMR on sedimented complex at 278-309 K; conditions: protein: recombinant; single strand
# [10] = target: T2, pRN1 primase helix-bundle domain (HBD); test: NMR (1H-15N HSQC); ATP + dGTP, 10 mM Mg2+, 298 K; HBD titrations: 25 mM sodium phosphate pH 7.0, 75 mM NaCl, 10 mM MgCl2, 298 K, 0.1 mM HBD, HBD:DNA 1:1.1; solid-state NMR on sedimented complex at 278-309 K; conditions: protein: recombinant; single strand
# pRN1 primase H145A = target: T3, pRN1 primase H145A; test: solid-state NMR (31P CP-MAS, hNH); ATPN + dGTPC, Mg2+; HBD titrations: 25 mM sodium phosphate pH 7.0, 75 mM NaCl, 10 mM MgCl2, 298 K, 0.1 mM HBD, HBD:DNA 1:1.1; solid-state NMR on sedimented complex at 278-309 K; conditions: protein: recombinant; single strand
molecule,measurement,setting,value
Nc1ncnc2c1ncn2[C@@H]1O[C@H](COP(=O)(O)OP(=O)(O)OP(=O)(O)O)[C@@H](O)[C@H]1O [ATP],1H-15N HSQC NMR titration,"[1]; HBD-DNA complex, two ATP bound",The data reveal that HBD binds one ATP and one dGTP
same,time-resolved solution NMR of dinucleotide formation,functional pRN1 primase [2]; co-substrate dGTP,dinucleotide formation with the cognate NTPs was terminated within several minutes
Nc1ncnc2c1ncn2[C@H]1C[C@H](O)[C@@H](COP(=O)(O)OP(=O)(O)OP(=O)(O)O)O1 [dATP],1H-15N HSQC NMR titration,[3],addition of dATP to the catalytic domain resulted in visible CSPs of V148 and S150
Nc1nc2c(ncn2[C@H]2C[C@H](O)[C@@H](COP(=O)(O)OP(=O)(O)CP(=O)(O)O)O2)c(=O)[nH]1 [dGTP^C],31P CP-MAS solid-state NMR,functional pRN1 primase [4],"wt primase and the mutant H145A bound to DNA^CT, ATP^N and dGTP^C"
same,1H-15N HSQC NMR,[5]; added together with ATP^C,both ATP^C and dGTP^C were rapidly added to the HBD-DNA^CT complex
same,31P CP-MAS solid-state NMR,functional pRN1 primase [6],The isolated resonances of bound dGTP^C decrease in the solid state
Nc1nc2c(ncn2[C@@H]2O[C@H](COP(=O)(O)OP(=O)(O)OP(=O)(O)O)[C@@H](O)[C@H]2O)c(=O)[nH]1 [GTP],1H-15N HSQC NMR titration,[1]; HBD-DNA complex with ATP,it could bind to the HBD domain in the same manner as for the dGTP substrate
Nc1nc2c(ncn2[C@H]2C[C@H](O)[C@@H](COP(=O)(O)O[C@H]3[C@@H](O)[C@H](n4cnc5c(N)ncnc54)O[C@@H]3COP(=O)(O)OP(=O)(O)NP(=O)(O)O)O2)c(=O)[nH]1,31P CP-MAS solid-state NMR; 1H-detected hNH NMR,functional pRN1 primase [7],We attribute this initial increase to dinucleotide formation and subsequent binding to pRN1 primase
Nc1nc2c(ncn2[C@H]2C[C@H](O)[C@@H](COP(=O)(O)OP(=O)(O)OP(=O)(O)O)O2)c(=O)[nH]1 [dGTP],1H-15N HSQC NMR titration,"[1]; HBD-DNA complex with ATP, displaces one ATP",titration of dGTP in a solution of HBD-DNA^CT-2ATP led to the substitution of one ATP
same,time-resolved solution NMR of dinucleotide formation,functional pRN1 primase [2]; co-substrate ATP,active primase bound to DNA^CT and the cognate NTPs (ATP and dGTP)
Nc1ncnc2c1ncn2[C@@H]1O[C@H](COP(=O)(O)OP(=O)(O)CP(=O)(O)O)[C@@H](O)[C@H]1O [ATP^C],1H-15N HSQC NMR,[5]; added together with dGTP^C,both ATP^C and dGTP^C were rapidly added to the HBD-DNA^CT complex
same,31P CP-MAS solid-state NMR; 1H-15N HSQC NMR,functional pRN1 primase [8],indeed showing the bound dGTP^C and ATP^C as well as the DNA
CTGTGCTCA (ssDNA) [DNACT (GTG-motif template)],binding result,[9],binds
same,binding result,[10],binds
same,binding result,pRN1 primase H145A,binds
